Where two headings read alike, the source gives them in different places.
Experiments:
[1] = system: SARS-CoV-2 d6-YFP; parameters: method as in PMID 34578109; settings: human Caco-2 cells, previously demonstrated; ref [41]; cited from earlier work
[2] = system: MCMV Smith-GFP; assay: microbe, parasite or virus in culture; type: cell-based, murine CMV; settings: for SI: MCMV/MEF
[3] = system: HCMV AD169-GFP; assay: microbe, parasite or virus in culture; type: cell-based, Human cytomegalovirus; settings: for SI: HCMV AD169-GFP/HFF
[4] = system: HFFs; assay: in vitro; type: cell-based; settings: human
Experimental: (§1) Drug induced cytotoxicity in HFF and other cell types was measured as a reduction of cell viability determined by Neutral Red uptake assay (NRA), as described previously. Briefly, compound treated cells were incubated with a final concentration of 40 μg/mL Neutral Red (Sigma Aldrich, St. Louis, MO, USA) for 1 to 4 h, depending on the cell type. The amount of incorporated Neutral Red was released from the cells by incubation with destaining solution (50% ethanol, 49% H2O, 1% acetic acid), and subsequently quantitated in a microplate reader by fluorescence measurement using 560/630 nm for excitation/emission, respectively. For determination of lactate dehydrogenase release into the cell culture supernatant, the CytoTox 96® Non-Radioactive Cytotoxicity Assay (Promega, Madison, WI, USA) was used according to the manufacturer’s protocol. Values were normalized to maximal release of LDH by measuring lysates of solvent-treated control cells. Cell viability was defined as the absence of cytotoxicity.

[5] = in vitro; type: cell-based
Experimental: as §1

[6] = system: VZV Oka-GFP; type: cell-based, varicella zoster virus; settings: HFF, 1× TCID25^7d, 6 d p.i.
[7] = system: SARS-CoV-2 d6-YFP; assay: microbe, parasite or virus in culture; type: cell-based
[8] = system: HAdV-2; assay: HAdV-2 plaque formation assay in HFFs; type: cell-based, human adenovirus type 2

CC(C)(C)c1cnc(CSc2cnc(NC(=O)C3CCNCC3)s2)o1 [SNS032]
impairment of SARS-CoV-2 replication [1]: effective
EC50 ([2]; Human betaherpesvirus 5, in Mus musculus, 120 h, MCMV Smith-GFP, MEF, 1× TCID25^5d, 5 d p.i., Table 1 summary): 290 ± 50 nM
SI ([2]; Figure 6 experiment): 3.5
SI ([2]; Table 1 summary): 3.5
SI ([3]; Table 1 summary): 2.0
SI ([3]; representative experiment (Figure 3)): 2.3
EC50 ([3]; Human betaherpesvirus 5, AD169, 168 h): 105 ± 4 nM
EC50 ([3]; Human betaherpesvirus 5, AD169, HFF-1, 168 h): 110 ± 20 nM
CC50 [4]: 220 ± 40 nM
CC50 at 48 h ([5]; human): 59500 ± 7000 nM
CC50 ([5]; human, CC50): 240 ± 22 nM
CC50 ([5]; mouse, CC50): 1030 ± 50 nM
CC50 at 5 d ([5]; mouse, CC50): ~1000 nM
EC50 [6]: inactive
EC50 [7]: 180 ± 30 nM
SI ([7]; Caco-2, conventional treatment): 340
SI ([7]; Caco-2, only pretreatment): 397
EC50 ([7]; Severe acute respiratory syndrome coronavirus 2, Caco-2): 150 ± 30 nM
EC50 ([7]; Severe acute respiratory syndrome coronavirus 2, Caco-2, 30 h): 175 ± 250 nM
EC50 ([8]; HAdV-2, HFF, 10 d p.i.): inactive
impact on HAdV-2 plaque formation ([8]; HFFs, at concentrations (0.03 µM) that produced anti-HCMV activity): none of the drugs produced a measurable impact

— PMC8657773, “Development of a PROTAC-Based Targeting Strategy Provides a Mechanistically Unique Mode of Anti-Cytomegalovirus Activity” (International Journal of Molecular Sciences, 2021)
